In the supplement of paper PMC8671470:

What was measured:
Details in all cases: 72 h
NOMO-1 [1] = tested on: NOMO-1
Method in brief: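 Each of fifteen myeloid leukaemia cell lines was seeded in RPMI 1640 at a density titrated to its linear growth range. The cells were incubated for 72 h at 37 °C and 5% CO2 with compounds at five tenfold doses from 1 to 10,000 nM, in duplicate. After ATP luminescence was normalised to vehicle and to a positive control at 10 µM, four-parameter log-logistic curves were fitted. These curves gave the IC50.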

MOLM-13 = assay: cell viability (% survival relative to DMSO control, bortezomib = 0%); higher = less cytotoxic
Method in brief: (§1)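 After 72 h at 37 °C with 5% CO2, cell viability in 384-well plates was measured by CellTiter-Glo luminescence. The plates held compounds pre-printed at 1, 10, 100, 1000 or 10000 nM in duplicate, and cells from 10 AML and 5 CML lines seeded at densities titrated to linear growth. Percent survival is the duplicate mean, normalised to vehicle as 100% and a 10 µM positive control as 0%.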

BV-173 = assay: as above
Method in brief: as §1

K-562 = assay: as above
Method in brief: as §1

NOMO-1 [2] = assay: as above
Method in brief: as §1

MV4-11 = assay: as above
Method in brief: as §1

Mono-Mac-6 = assay: as above
Method in brief: as §1

SHI-1 = assay: as above
Method in brief: as §1

LAMA-84 = assay: as above
Method in brief: as §1

KCL-22 = assay: as above
Method in brief: as §1

ML-2 = assay: as above
Method in brief: as §1

KU-812 = assay: as above
Method in brief: as §1

HEL = assay: as above
Method in brief: as §1

THP-1 = assay: as above
Method in brief: as §1

KG-1 = assay: as above
Method in brief: as §1

HL-60 [3] = assay: as above
Method in brief: as §1

HL-60 [4] = assay: cell viability (% survival relative to DMSO control); higher = less cytotoxic
Method in brief: (§2)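 A rescreen of the full library used HL-60 cells in RPMI 1640 with 10% FBS on 384-well plates, run in duplicate at five tenfold concentrations (1–10,000 nM). Each screen included DMSO or 100 nM of one of three metabolic inhibitors and ran 72 h at 37 °C, 5% CO2. CellTiter-Glo viability was scaled between DMSO and 10 μM proteasome-inhibitor wells. Any area under the curve comes from four-parameter log-logistic fits with drc and PharmacoGx.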

HL-60 [5] = assay: area under dose-response curve (viability, 1 nM-10 uM) (fraction (0-1)); higher = more sensitive
Method in brief: as §2

CC(C)(CCCCCCCCCCC(C)(C)CC(=O)O)CC(=O)O [MEDICA 16]
Details	IC50 (cell viability) [µM]
NOMO-1 [1]	> 10

Details	area under dose-response curve, co-treatment: AZD3965 100 nM	area under dose-response curve, co-treatment: DMSO vehicle	area under dose-response curve, co-treatment: GSK2194069 100 nM	area under dose-response curve, co-treatment: pictilisib 100 nM	cell viability, 1 nM [%]	cell viability, 10 nM [%]	cell viability, 100 nM [%]	cell viability, 1000 nM [%]	cell viability, 10000 nM [%]
BV-173	–	–	–	–	105	89.4	98.5	94.2	106
HEL	–	–	–	–	116	108	95.2	110	119
HL-60 [3]	–	–	–	–	109	114	98	116	108
HL-60 [5]	< 0.0301	< 0.0301	< 0.0301	< 0.0301	–	–	–	–	–
K-562	–	–	–	–	114	108	103	96.8	117
KCL-22	–	–	–	–	119	97.4	107	107	98.7
KG-1	–	–	–	–	91.7	95.8	98.6	107	99.8
KU-812	–	–	–	–	106	94.2	101	106	97.8
LAMA-84	–	–	–	–	110	85.8	99.3	98.6	97.8
ML-2	–	–	–	–	104	99.4	96.3	101	91.5
MOLM-13	–	–	–	–	113	97.1	107	79.4	96.7
MV4-11	–	–	–	–	124	105	94	102	116
Mono-Mac-6	–	–	–	–	99.8	114	102	102	111
NOMO-1 [2]	–	–	–	–	100	95.3	101	101	103
SHI-1	–	–	–	–	121	104	102	98.2	90.7
THP-1	–	–	–	–	103	94.8	97.2	96.5	99.3

cell viability [%], HL-60 [4]
Details	0.001 µM	0.01 µM	0.1 µM	1 µM	10 µM
co-treatment: AZD3965 100 nM	100	104	105	101	99.5
co-treatment: DMSO vehicle	98.9	98.3	103	101	98
co-treatment: GSK2194069 100 nM	101.1	87.2	99	102	93.201
co-treatment: pictilisib 100 nM	97.8	100	93.9	90	99.96
